Test results reported in the OPERA property sets (Mansouri et al. 2018).
Where a SMILES comes first, the peptide text is derived from it. [ ]: non-standard residue; d: D form. Orn = NCCC[CH](N)C(=O)O

CC(=O)NC(CCCN)C(=O)NC(Cc1ccccc1)C(=O)NC(CC(C)C)C(N)=O (stereo not drawn) (Ac-[Orn]-Phe-Leu-NH2; configuration not given here)
logP: 0.54

O=S1(=O)NC(C2CC=CC2)=Nc2ccccc21
logP: 1.53

CC(=O)NC(CCCCN)C(=O)NC(Cc1ccccc1)C(N)=O (stereo not drawn)
logP: 0.12

CN(C)N=Nc1nccs1
logP: 1.27

NC(CCc1ccccc1)C(=O)O (stereo not drawn)
logP: -1.2

CCCNC(=O)c1ccccc1
logP: 1.72

CC(C)(C)C(COc1ccc(S(C)(=O)=O)cc1)OC(=O)n1ccnc1 (stereo not drawn)
logP: 2.59

Cn1ccc(=O)cc1
logP: -1.22

COc1ccc(COC(C(=O)O)c2ccccc2)cc1Cl (stereo not drawn)
logP: 2.45

CC1CC2C3CCC4=CC(=O)C=CC4(C)C3(F)C(O)CC2(C)C1(O)C(=O)NC(CO)c1ccccc1 (stereo not drawn)
logP: 2.89

CCC1COC(Cn2cncn2)(c2ccc(NC(=O)C(F)(F)F)cc2)O1 (stereo not drawn)
logP: 1.08

O=C(NCCCO)C(F)(F)Cn1ccnc1[N+](=O)[O-]
logP: -0.64

CCCCCc1cc(CCCCN2CC(=O)c3ccccc3C2=O)c2c(c1)OC(C)(C)C1CC=C(C)CC21 (stereo not drawn)
logP: 9.07

OCCOc1ccccc1Cl
logP: 1.81

CCc1ncc([N+](=O)[O-])n1C
logP: 0.68

C#CC1(OC(=O)C2=CN(C)C=CC2)CCC2C3CCC4=CC(=O)CCC4C3CCC21C (stereo not drawn)
logP: 4.44

Clc1ccc(-c2c(Cl)ccc(Cl)c2Cl)c(Cl)c1Cl
logP: 7.04

CCCCN(C)N=Nc1ccccc1C(N)=O
logP: 3.52

CC12CCC(=O)C=C1CCC1C2CCC2(C)C1CCC2(O)C(O)CO (stereo not drawn)
logP: 2

CC(=O)NC(CCCN)C(=O)NC(CC(C)C)C(N)=O (stereo not drawn) (Ac-[Orn]-Leu-NH2; configuration not given here)
logP: -0.71

N#CCc1ccc(O)c2ncccc12
logP: 1.81

CC(=O)NC(CC(C)C)C(=O)NC(CC(=O)O)C(=O)NC(CC(C)C)C(N)=O (stereo not drawn) (Ac-Leu-Asp-Leu-NH2; configuration not given here)
logP: 0.16

CCN(CC)CCSC(=NO)c1nc(C)no1
logP: 0.71

O=c1cccccc1
logP: 0.26

COc1cc(S(C)=O)ccc1-c1nc2ccccc2[nH]1 (stereo not drawn)
logP: 2.15

Cc1ccc(Cl)c(C)c1
logP: 3.83

COc1c(O)cc2c(c1OC)-c1ccc(SC)c(=O)cc1C(NC(C)=O)CC2 (stereo not drawn)
logP: 1.43

COC(=O)C1CC2C3CCC4=CC(=O)C=CC4(C)C3(F)C(O)CC2(C)C1C(=O)CO (stereo not drawn)
logP: 1.78

CNCCN(C)S(=O)(=O)c1ccc(CONC(N)=O)c([N+](=O)[O-])c1
logP: 0.45

Cc1ccc(-n2ccc(=O)c(O)c2C)cc1
logP: 1.72

Cc1ncc([N+](=O)[O-])n1CCSC(=S)N(C)C
logP: 1.28

Cc1nc([N+](=O)[O-])cn1C
logP: -0.24

O=C(O)c1ccc([N+](=O)[O-])c(O)c1
logP: 1.98

CNC(Cc1ccccc1)C(=O)O (stereo not drawn)
logP: -1.53

COCC(Cn1ccnc1[N+](=O)[O-])OC(C)=O (stereo not drawn)
logP: -0.04

CC(=O)N(CC(O)CO)c1c(I)c(C(=O)NCCO)c(I)c(C(=O)NCCO)c1I (stereo not drawn)
logP: -1.86

C#CCOc1c(Cl)cc(NC=NOCOC)cc1Cl
logP: 3.2

O=[N+]([O-])c1nccn1CCN1CCCCC1
logP: 0.36

O=[N+]([O-])c1nccn1COC(CO)CO
logP: -1.17

CNN=Nc1ccc(C(N)=O)cc1
logP: 0.47

CC(=O)N[C@@H](Cc1c[nH]c2ccccc12)C(=O)N[C@@H](C)C(=O)N[C@@H](C)C(N)=O (Ac-Trp-Ala-Ala-NH2)
logP: -0.38

Nc1ccc2c(c1)C(=O)N(O)C2=O
logP: 0.16

COc1cc(OCc2ccccc2CCCN2CCC(O)CC2)cc(OC)c1OC
logP: 2.6

COc1ccccc1OCc1ccccc1CCCN1CCC(O)CC1
logP: 2.82

O=C(Cn1cnnn1)N[C@@H]1C(=O)N2C(C(=O)O)=C(CSc3nncs3)CS[C@H]12
logP: -0.67

CCOc1cccc(OCc2ccccc2CCCN2CCC(O)CC2)c1
logP: 3.5

O=c1[nH]c(Nc2ccccc2)nc2c1ncn2CC(O)CSCCO (stereo not drawn)
logP: 0.83

Cc1c(O)c(=O)ccn1-c1ccc([N+](=O)[O-])cc1
logP: 0.76

CC(=NNC(=S)NNC(=S)Nc1ccccc1Cl)c1ccccn1
logP: 2.67

CCN1C(=O)C(=O)c2c(cccc2[N+](=O)[O-])C1=O
logP: 0.82

COCC(Cn1ccnc1[N+](=O)[O-])OC (stereo not drawn)
logP: 0.06

Cc1ccc(NC(=O)c2[nH]nc(C)c2[N+](=O)[O-])cc1
logP: 2.34

ClC(Cl)(Cl)c1nc(C(Cl)(Cl)Cl)nc(C(Cl)(Cl)Cl)n1
logP: 3.75

C#CCOc1c(Cl)cc(NC=NOCCC)cc1Cl
logP: 4

CCCCOC(=O)C(C(=O)OCCCC)=C1SCCS1
logP: 4.6

COc1ccc2[nH]c3c(c2c1)CCNc1cc(Cl)ccc1-3
logP: 4.24

CCOc1ccc(C2(C(=O)OC)CC(F)(F)C2(F)F)cc1 (stereo not drawn)
logP: 4.06

Nc1ccn(C2OC3COC2C3O)c(=O)n1 (stereo not drawn)
logP: -1.64

Clc1ccc(-c2cc(Cl)c(Cl)c(Cl)c2Cl)cc1Cl
logP: 7.6

CC1CCCC(C)C1NC(=O)N(CCCl)N=O (stereo not drawn)
logP: 2.57

CC1CSC2C(NC(=O)C(O)c3ccccc3)C(=O)N2C1C(=O)O (stereo not drawn)
logP: 0.47

C[Si](Cn1cncn1)(c1ccc(F)cc1)c1ccc(F)cc1
logP: 3.7

CCOC(=O)C(C)Oc1ccc(Oc2cnc3cc(C(F)(F)F)ccc3n2)cc1 (stereo not drawn)
logP: 4.37

COC(=O)n1cc(F)c(=O)[nH]c1=O
logP: -0.68

CC(C)(C)C(=O)OCCOCn1cnc2c(=O)[nH]c(N)nc21
logP: 0.3

NC(=Nc1ccccc1)NN=Cc1ccc2ccccc2n1
logP: 0.99

Clc1ccc(Oc2nc(C(Cl)(Cl)Cl)nc(C(Cl)(Cl)Cl)n2)cc1
logP: 5.67

O=[N+]([O-])c1ccc2ccc3cccc4ccc1c2c34
logP: 5.06

C#CCOc1c(Cl)cc(NC=NOCCCl)cc1Cl
logP: 3.7

CC1=C(/C=C/C(C)=C/C=C/C(C)=C/CO)C(C)(C)CCC1
logP: 5.68

C#CCOc1c(Cl)cc(NC=NO)cc1Cl
logP: 2.8

Cc1cc(OCCN(C)C)c(C(C)C)cc1OS(=O)(=O)C12CCC(CC1=O)C2(C)C (stereo not drawn)
logP: 4.37

CN1C(=O)C(=O)c2ccccc2C1=O
logP: 0.6

Clc1ccc(-c2ccc(Cl)c(Cl)c2)c(Cl)c1
logP: 6.31

S=C=NCCCc1ccccc1
logP: 3.8

CCC1COC(Cn2cncn2)(c2ccc(NC(=O)NC)cc2)O1 (stereo not drawn)
logP: 0.62

S=C=NCCCCc1cccnc1
logP: 2.7

Cc1ccccc1C(=O)OCC1CCC(n2cnc3c(=O)[nH]cnc32)O1 (stereo not drawn)
logP: 1.02

CN1CCC(=C2c3ccccc3CCc3cccnc32)CC1
logP: 3.59

c1ccc(Cn2cnnn2)cc1
logP: 1.36

O=[N+]([O-])C=C1NCCN1Cc1cccnc1
logP: -1.02

COCC(O)Cn1ncc([N+](=O)[O-])n1 (stereo not drawn)
logP: -0.07

CC(O)CNC(=O)C(F)(F)Cn1cnc([N+](=O)[O-])n1 (stereo not drawn)
logP: -0.47

Fc1ccc(SCc2ccc(CCCN3CCOCC3)cc2)cc1
logP: 3.51

Brc1ccc(Br)c(-c2cc(Br)c(Br)cc2Br)c1
logP: 7.1

CCOc1cccc(NC(=O)OCCN2CCOCC2)c1
logP: 2.5

C#CCOc1c(Cl)cc(NC=NOC(C)CC)cc1Cl (stereo not drawn)
logP: 4.2

Cc1ncc(CO)c(COCCC(C)C)c1O
logP: 0.83

Cc1c(Cl)cccc1Cl
logP: 3.99

O=C(c1c[nH]c2ccccc12)C(F)(F)F
logP: 3.44

CCCCN1C(=O)NC(=O)C(=O)C1=O
logP: 0.81

CC(C)N(C=Nc1ccn(C2CC(O)C(CO)O2)c(=O)n1)C(C)C (stereo not drawn)
logP: 0.17

CC(C)c1cccc(C(C)C)c1N
logP: 3.18

CC(=O)OC(C(=O)NC1C(=O)N2C(C(=O)O)=C(C)CSC12)c1ccccc1 (stereo not drawn)
logP: 1.02

CCC1(C(C)c2ccccc2)C(=O)NC(=O)N(C)C1=O (stereo not drawn)
logP: 3.14

Cc1cc(Cl)ccc1Cl
logP: 3.97

CC1CC2C3CCC4=CC(=O)C=CC4(C)C3(F)C(O)CC2(C)C1(O)C(=O)NCCCl (stereo not drawn)
logP: 2.73

CCCCC(NC(Cc1ccccc1)C(=O)N1CCC(OCOC)CC1)C(=O)NC(CC1CCCCC1)C(O)CC(C(=O)NCCCNCCO)C(C)C (stereo not drawn)
logP: 3.5

CCN(CC)CCSC(=NO)c1nonc1C
logP: 1.4

CC(C)CN1C(=O)NC(=O)C(=O)C1=O
logP: 0.76

CC1CN(c2cc3c(cc2F)c(=O)c(C(=O)O)cn3-c2ccc(F)cc2F)CCN1 (stereo not drawn)
logP: -0.2

CCCCCCOc1cccc(NC(=O)OCCN2CCOCC2)c1
logP: 4.73

COP(=O)(OC)O/C(C)=C/C(=O)OC(C)c1ccccc1 (stereo not drawn)
logP: 3.3

Cc1ccc(Cl)cc1O
logP: 2.63

Cc1cn(C2CC(N=[N+]=[N-])C(COC(=O)CCCNC(=O)C34CC5CC(CC(C5)C3)C4)O2)c(=O)[nH]c1=O (stereo not drawn)
logP: 2.47

NS(=O)(=O)c1ccc2ccccc2c1
logP: 1.55

CC(C)CNCCCS(=O)(=O)c1ccc(S(N)(=O)=O)s1
logP: -0.35

O=C(NC(CO)C(O)c1ccc(-c2ccccn2)cc1)C(F)(F)F (stereo not drawn)
logP: 1.31

CCN1C(=O)C(=O)c2c(C(N)=O)cccc2C1=O
logP: -0.5

Cc1[nH]c2cccc3c2c1CC1NCC(C(=O)NC2(C(C)C)OC4(O)C5CCCN5C(=O)C(C(C)C)N4C2=O)C=C31 (stereo not drawn)
logP: 3.15

CCC(C)NC(=O)C(=Cc1ccccc1)Cc1ccccc1 (stereo not drawn)
logP: 3.99

Cc1ccc2c(=O)[nH]c(=O)[nH]c2c1
logP: 0.55

CC12C=CC(=O)C=C1CCC1C2C(O)CC2(C)C1CCC2(O)C(=O)COC1OC(CO)C(OC2OC(CO)C(O)C(O)C2O)C(O)C1O (stereo not drawn)
logP: -0.56

CCC(=O)C1(c2cccc(OC(=O)OC(C)C)c2)CCN(C)CC1
logP: 1.72

CCCc1ccc(OCC(C)O)c2c(=O)cc(C(=O)O)oc12 (stereo not drawn)
logP: 3

Nc1ncnc2c1ncn2C1OC(CO)CC1O (stereo not drawn)
logP: -0.61

N#CCc1ccc(C(=O)O)cc1
logP: 1.18

Cn1c([N+](=O)[O-])cnc1-c1ccc(N)cc1
logP: 1.06

N#CN=C1NCCN1Cc1cccnc1
logP: 0.77

CCCCNC(=O)CNC(=O)C=[N+]=[N-]
logP: 0.37

CN(C)Cc1ccc(-c2cccc(Nc3[nH]ccc3[N+](=O)[O-])c2)o1
logP: 3.1

CC(=O)Nc1ncnc2c1ncn2C1CC(O)C(CO)O1 (stereo not drawn)
logP: -0.19

CCCN1C(=O)NC(=O)C(=O)C1=O
logP: 0.28

Cc1cc([N+](=O)[O-])ccc1NN=C(C#N)C#N
logP: 3.55

COc1ccc(C(=O)NP(=O)(N2CC2)N2CC2)cc1
logP: 1.08

CCCn1c(=O)c2nc(-c3ccccc3N)[nH]c2n(CCC)c1=O
logP: 3.54

Cc1cccc(C)c1NC(=O)c1ccc(CN2CCCC2)cc1
logP: 3.14

CCOC(=O)C(NC(=O)CCCCSc1[nH]cnc2ncnc1-2)c1ccccc1 (stereo not drawn)
logP: 1.13
